From the CheMixHub viscosity set
Values joined by “and” are separate entries in the source; they are usually repeats but may differ in a detail not shown here. Equal values may be shown once.

Test: xn = mol fraction of the nth substance listed

CCCCOCCOCCO + CCCO
viscosity [mPa·s], 101 kPa
Conditions	298.15 K	308.15 K	318.15 K
x1 = 0.011	1.95	1.525	1.246
x1 = 0.042	2.019	1.576	1.293
x1 = 0.074	2.098	1.633	1.337
x1 = 0.1191	2.202	1.711	1.409
x1 = 0.1629	2.325	1.802	1.488
x1 = 0.2086	2.446	1.889	1.576
x1 = 0.2587	2.587	2.024	1.669
x1 = 0.3152	2.748	2.149	1.767
x1 = 0.3289	2.787	2.179	1.795
x1 = 0.3796	2.959	2.283	1.89
x1 = 0.4568	3.213	2.435	2.034
x1 = 0.5093	3.371	2.548	2.123
x1 = 0.5833	3.615	2.714	2.263
x1 = 0.6316	3.764	2.814	2.346
x1 = 0.6882	3.928	2.932	2.442
x1 = 0.7604	4.153	3.085	2.564
x1 = 0.8285	4.361	3.228	2.677
x1 = 0.9045	4.598	3.388	2.797
x1 = 0.9511	4.734	3.481	2.875

O=S1(=O)CCCC1 + OCCOCCO
303.15 K, 101 kPa
Conditions	viscosity [mPa·s]
x1 = 0.0517	20.1
x1 = 0.0984	18.62
x1 = 0.206	15.85
x1 = 0.2958	13.99
x1 = 0.3988	12.28
x1 = 0.4469	11.69
x1 = 0.4997	11.11
x1 = 0.5346	10.81
x1 = 0.603	10.31
x1 = 0.7047	9.829
x1 = 0.7896	9.536
x1 = 0.8987	9.51
x1 = 0.9348	9.614

O=S1(=O)CCCC1 + ClCCCl
viscosity [mPa·s], 100 kPa
Conditions	x1 = 0.0168	x1 = 0.1062	x1 = 0.2045	x1 = 0.3091	x1 = 0.4077	x1 = 0.5125	x1 = 0.6483	x1 = 0.8007	x1 = 0.9708
303.15 K	0.8741	1.693	2.594	3.559	4.475	5.452	6.725	8.157	9.753
308.15 K	0.8027	1.515	2.303	3.149	3.949	4.803	5.911	7.157	8.551
313.15 K	0.7524	1.384	2.086	2.837	3.545	4.3	5.28	6.382	7.617

C=O + O
viscosity [mPa·s], 101 kPa
Conditions	x1 = 0.03	x1 = 0.062	x1 = 0.13	x1 = 0.2	x1 = 0.29	x1 = 0.37
293.15 K	1.13	1.26	1.54	1.95	–	–
303.15 K	0.91	1.01	1.25	1.54	–	–
313.15 K	0.74	0.82	1.01	1.24	–	–
323.15 K	0.61	0.68	0.83	1.01	1.61	2.11

Cc1ccc(O)cc1 + C[N+](C)(C)CCO.[Cl-]
Conditions	viscosity
293.15 K, 101 kPa, x2 = 0.333	133.7 mPa·s
298.15 K, 101 kPa, x2 = 0.333	102 mPa·s
298.15 K, 101.33 kPa, x1 = 0.7	138.7 mPa·s
298.15 K, 101.33 kPa, x1 = 0.8	75.19 mPa·s and 55.19 mPa·s and 47.26 mPa·s
298.15 K, 101.33 kPa, x1 = 0.9	41.11 mPa·s
303.15 K, 101 kPa, x2 = 0.333	75.5 mPa·s
308.15 K, 101 kPa, x2 = 0.333	58.57 mPa·s
313.15 K, 101 kPa, x2 = 0.333	45.82 mPa·s
318.15 K, 101 kPa, x2 = 0.333	36.17 mPa·s
323.15 K, 101 kPa, x2 = 0.333	28.83 mPa·s

Nc1ccccc1Cl + Cc1cccc(Cl)c1
viscosity [mPa·s], 101 kPa
Conditions	x1 = 0.1012	x1 = 0.2056	x1 = 0.3125	x1 = 0.4056	x1 = 0.5026	x1 = 0.6025	x1 = 0.7145	x1 = 0.818	x1 = 0.91
303.15 K	0.9087	1.109	1.348	1.587	1.867	2.19	2.595	3.009	3.408
308.15 K	0.8581	1.047	1.269	1.489	1.743	2.032	2.386	2.74	3.073
313.15 K	0.812	0.99	1.199	1.402	1.634	1.893	2.205	2.507	2.786
318.15 K	0.7685	0.9398	1.138	1.329	1.544	1.78	2.056	2.316	2.545

O=S1(=O)CCCC1 + CC(C)O
viscosity [mPa·s], 101 kPa
Conditions	x1 = 0.0756	x1 = 0.1606	x1 = 0.2446	x1 = 0.3418	x1 = 0.4362	x1 = 0.5514	x1 = 0.6552	x1 = 0.754	x1 = 0.8754
303.15 K	1.634	1.705	1.823	2.067	2.386	2.94	3.662	4.701	6.713
308.15 K	1.438	1.489	1.616	1.837	2.128	2.626	3.274	4.19	5.992
313.15 K	–	1.324	1.442	1.644	1.908	2.356	2.945	3.754	5.332

Nc1ccccc1Cl + Cc1ccccc1Cl
viscosity [mPa·s], 101 kPa
Conditions	x1 = 0.11	x1 = 0.2176	x1 = 0.3228	x1 = 0.4258	x1 = 0.5266	x1 = 0.6253	x1 = 0.7219	x1 = 0.8165	x1 = 0.9092
303.15 K	1.073	1.284	1.521	1.782	2.069	2.379	2.711	3.065	3.437
308.15 K	0.9808	1.175	1.392	1.63	1.888	2.164	2.458	2.765	3.084
313.15 K	0.8896	1.07	1.271	1.49	1.726	1.976	2.238	2.507	2.783
318.15 K	0.7935	0.9642	1.153	1.358	1.578	1.808	2.045	2.286	2.526

O=S1(=O)CCCC1 + Cc1cccc(C)c1
viscosity [mPa·s], 101.3 kPa
Conditions	x2 = 0.1117	x2 = 0.2206	x2 = 0.3267	x2 = 0.4301	x2 = 0.531	x2 = 0.6294	x2 = 0.7254	x2 = 0.8191	x2 = 0.9106
303.15 K	6.231	4.214	2.961	2.171	1.65	1.275	1.007	0.7887	0.6551
323.15 K	4.014	2.798	2.042	1.543	1.204	0.9507	0.7638	0.6203	0.5221

O=S1(=O)CCCC1 + CCCCOC(C)=O
viscosity [mPa·s], 101 kPa
Conditions	x1 = 0.3402	x1 = 0.7887	x2 = 0.0164
303.15 K	–	4.275	–
308.15 K	1.145	–	7.925

O=S1(=O)CCCC1 + CCc1ccccc1
viscosity [mPa·s]
Conditions	101 kPa	101.3 kPa
303.15 K, x2 = 0.9106	0.7155	0.7155
313.15 K, x2 = 0.7254	0.9235	–
323.15 K, x2 = 0.7254	0.8125	0.8125
323.15 K, x2 = 0.8194	0.6653	0.6653
